Laboratory results: patent publication US7078400B2, “20-HETE synthase inhibitor” (Taisho Pharmaceutical Co., Ltd., priority 1999, dated 2006)

Test system: 20-HETE synthase originated from rat kidney microsome
Assay: Inhibitory effect of 20-HETE synthase originated from rat kidney microsome
Format: biochemical
Details: 1 μM of subject compound; 20-HETE production without compound set to 100%; rat kidney microsome
Protocol: Experimental Example [Inhibitory effect of 20-HETE synthase originated from rat kidney microsome]
Regarding the compounds listed in Table 1, their inhibitory activity to production of 20-HETE was examined.
The subject compound for this examination was added to a buffer comprising 50 mM of 3-morpholinopropane sulfonic acid (pH7.4), 5 mM of magnesium chloride and 1 mM of ethylenediaminetetraacetic acid (EDTA) disodium salt.
After that, the rat kidney microsome (microsome fraction prepared from the kidney of a spontaneous hypertension rat (male, 6 weeks of age)) as an enzyme, [5,6,8,9,11,12,14,15] tritium-arachidonic acid (supplied by Amasham) as a substrate, and NADPH (supplied by Sigma) as a coenzyme were added and reacted for 1.5 hours at 37° C.
After the reaction, formic acid was added to stop the reaction, and then acetonitrile (final concentration of 50%) was added and left for 1.5 hours at room temperature.
The activity of 20-HETE synthase was measured by using a high performance liquid chromatograph having a detector for radioactive substances (supplied by Gilson), and equipped with a C18 reversed phase column (Biocyl C18, supplied by Bio-rad).

Row | Structure (SMILES) | Inhibition rate (1 μM)
1 | COc1ccc(N/C=N/O)c(OC)c1 [Comp. 198] | 81.8
2 | COC(=O)c1ccc(N/C=N/O)c(C)c1 [Comp. 199] | 85.6
3 | COC(=O)c1cc(I)ccc1N/C=N/O [Comp. 201] | 70.1
4 | O/N=C/Nc1c(F)cc(Br)cc1Br [Comp. 210] | 78
5 | Cc1ccc(CO)cc1N/C=N/O [Comp. 214] | 31.9
6 | O/N=C/Nc1c(F)c(F)c(F)c(F)c1F [Comp. 215] | 36.1
7 | O=[N+]([O-])c1ccc(Sc2ccc(N/C=N/O)cc2)cc1 [Comp. 223] | 52.2
8 | O/N=C/Nc1ccc(SC(F)(F)F)cc1 [Comp. 224] | 47.1
9 | COc1ccc(/C=C/c2ccc(N/C=N/O)cc2)cc1 [Comp. 228] | 72.0
10 | O/N=C/Nc1cccc2ccccc12 [Comp. 242] | 50.6
11 | Cc1cc(N/C=N/O)ccc1N1C(=O)c2ccc(Cl)cc2C1=O [Comp. 244] | 32.7
12 | CCC1(c2ccc(N/C=N/O)cc2)CCC(=O)NC1=O (centres unmarked) [Comp. 245] | 55.4
13 | CNS(=O)(=O)Cc1ccc(N/C=N/O)cc1 [Comp. 259] | 52.8
14 | O/N=C/Nc1ccc2c(c1)Cc1cc(Br)ccc1-2 [Comp. 274] | 94.5
15 | COc1cc2c(cc1N/C=N/O)oc1ccccc12 [Comp. 277] | 76.4
16 | O=C(Nc1ccccc1)c1ccccc1N/C=N/O [Comp. 278] | 65.3
17 | Cc1cc(C(C#N)c2ccc(Cl)cc2)c(Cl)cc1N/C=N/O (centres unmarked) [Comp. 279] | 42.8
18 | CCCCN(CCCC)CCCOC(=O)c1ccc(N/C=N/O)cc1 [Comp. 281] | 50.9
19 | CN(C)c1ccc(/C=C/c2ccc(N/C=N/O)cc2)cc1 [Comp. 282] | 122.9
20 | N#CC(c1ccccc1)c1ccc(N/C=N/O)cc1 (centres unmarked) [Comp. 283] | 62.6
21 | Cc1ccc2cc(N/C=N/O)ccc2n1 [Comp. 295] | 73.8
22 | O/N=C/Nc1ccc2ncccc2c1 [Comp. 297] | 71.1

Row | Structure (SMILES) | Inhibition rate (1 μM)
23 | CC(=O)N(C)c1ccc(N/C=N/O)cc1 [Comp. 301] | 62.1
24 | O=c1ccc2cc(N/C=N/O)ccc2o1 [Comp. 304] | 68.5
25 | O=S(=O)(CCSc1ccccc1N/C=N/O)c1ccc(Cl)cc1 [Comp. 315] | 50.7
26 | CCCCCCCCOc1ccc(N/C=N/O)cc1 [Comp. 322] | 117.5
27 | CCC(C)CCOc1ccc(N/C=N/O)cc1 (centres unmarked) [Comp. 326] | 110.8
28 | CC(C)CCCOc1ccc(N/C=N/O)cc1 [Comp. 327] | 110.1
29 | CC(C)CCOc1ccc(N/C=N/O)cc1 [Comp. 328] | 121.4
30 | CCN(CC)CCOc1ccc(N/C=N/O)cc1 [Comp. 351] | 89
31 | O/N=C/Nc1ccc(OCCN2CCCCC2)cc1 [Comp. 357] | 98
32 | O/N=C/Nc1ccc(OCC2CCCCCC2)cc1 [Comp. 370] | 113.7
33 | Cc1ccc(CCOc2ccc(N/C=N/O)cc2)cc1 [Comp. 372] | 100.5
34 | COc1ccc(CCCOc2ccc(N/C=N/O)cc2)cc1OC [Comp. 374] | 119.1
35 | COc1ccc(CCCOc2ccc(N/C=N/O)cc2)cc1 [Comp. 375] | 117.7
36 | O/N=C/Nc1ccc(OCCc2cccc(Br)c2)cc1 [Comp. 376] | 114.9
37 | CCOC(=O)CCCCCOc1ccc(N/C=N/O)cc1 [Comp. 378] | 102.4
38 | COc1ccccc1CCOc1ccc(N/C=N/O)cc1 [Comp. 379] | 105.4
39 | CC(C)=CCCC(C)CCOc1ccc(N/C=N/O)cc1 (centres unmarked) [Comp. 380] | 118.9
40 | O/N=C/Nc1ccc(OCCCCc2ccccc2)cc1 [Comp. 381] | 116.0
41 | Cc1ccc(COc2ccc(N/C=N/O)cc2)cc1 [Comp. 383] | 116.2
42 | O/N=C/Nc1ccc(OCc2ccccc2CCc2ccccc2)cc1 [Comp. 386] | 105.2
43 | O/N=C/Nc1ccc(OCc2cccc(Oc3ccccc3)c2)cc1 [Comp. 388] | 96.2

Same assay, conditions: 1 μM of the subject compound added; 20-HETE production without compound set to 100%; rat kidney microsome

Row | Structure (SMILES) | Inhibition rate (1 μM)
44 | Cc1ccc(N/C=N/O)c(C)c1 [Comp. 22] | 95.7
45 | O/N=C/Nc1ccc(Br)cc1Cl [Comp. 35] | 95.4
46 | Cc1ccc(C(C)C)cc1N/C=N/O [Comp. 57] | 59.1
47 | COc1ccccc1N/C=N/O [Comp. 59] | 49.0
48 | Cc1cccc(N/C=N/O)c1 [Comp. 62] | 69.5
49 | Cc1cccc(N/C=N/O)c1C [Comp. 63] | 49.3
50 | COc1cccc(N/C=N/O)c1 [Comp. 65] | 59.3
51 | CCOc1cccc(N/C=N/O)c1 [Comp. 66] | 41.2
52 | Cc1c(Cl)cccc1N/C=N/O [Comp. 67] | 48.4
53 | O/N=C/Nc1ccc(F)cc1Cl [Comp. 69] | 58.7
54 | CCCCCCCCc1ccc(N/C=N/O)cc1 [Comp. 70] | 32.9
55 | CCCc1ccccc1N/C=N/O [Comp. 71] | 42.5
56 | O/N=C/Nc1ccc(I)cc1Cl [Comp. 73] | 99.9
57 | Cc1cc(Br)cc(C)c1N/C=N/O [Comp. 74] | 43.7
58 | O/N=C/Nc1ccccc1Br [Comp. 75] | 46.9
59 | COc1cc(N/C=N/O)cc(OC)c1 [Comp. 76] | 35.1
60 | O/N=C/Nc1ccc(Br)cc1C(F)(F)F [Comp. 77] | 49.0
61 | COc1ccc(N/C=N/O)cc1OC [Comp. 78] | 36.3
62 | O/N=C/Nc1ccccc1F [Comp. 79] | 35.3

Row | Structure (SMILES) | Inhibition rate (1 μM)
63 | O/N=C/Nc1cc(C(F)(F)F)ccc1Cl [Comp. 80] | 37.2
64 | O/N=C/Nc1cccc(Cl)c1Cl [Comp. 81] | 51.3
65 | Cc1ccc(N/C=N/O)cc1Cl [Comp. 86] | 58.7
66 | COc1ccc(C(F)(F)F)cc1N/C=N/O [Comp. 90] | 36.5
67 | O/N=C/Nc1cccc(I)c1 [Comp. 91] | 36.6
68 | CCOc1ccc(N/C=N/O)c([N+](=O)[O-])c1 [Comp. 94] | 41.2
69 | Cc1cc(C)c(N/C=N/O)c([N+](=O)[O-])c1 [Comp. 95] | 44.5
70 | COc1ccc(N/C=N/O)cc1F [Comp. 98] | 43.9
71 | COc1cccc(N/C=N/O)c1OC [Comp. 99] | 40.8
72 | COc1ccc(N/C=N/O)cc1Cl [Comp. 101] | 52.4
73 | O/N=C/Nc1c(Br)cc(C2CCCCC2)cc1Br [Comp. 102] | 44.4
74 | COc1ccc(C)c(N/C=N/O)c1 [Comp. 104] | 31.9
75 | O/N=C/Nc1ccc(C(O)(C(F)(F)F)C(F)(F)F)cc1 [Comp. 105] | 46.7
76 | COc1cc(OC)c(N/C=N/O)cc1Cl [Comp. 108] | 36.4
77 | N#Cc1ccc(N/C=N/O)cc1 [Comp. 112] | 37.4
78 | O/N=C/Nc1ccc(Cl)cc1Br [Comp. 117] | 71.6
79 | COC(=O)c1ccc(N/C=N/O)cc1 [Comp. 123, N-(4-methoxycarbonylphenyl)-N′-hydroxyformamidine] | 92.7
80 | O/N=C/Nc1ccccc1 [Comp. 135] | 49.3
81 | O=C(OC/C=C/c1ccccc1)c1ccccc1N/C=N/O [Comp. 138] | 44.0

Row | Structure (SMILES) | Inhibition rate (1 μM)
82 | CCc1cccc(C)c1N/C=N/O [Comp. 139] | 69.7
83 | Cc1ccc(N/C=N/O)c([N+](=O)[O-])c1 [Comp. 143] | 37.3
84 | CSCc1cccc(C(F)(F)F)c1N/C=N/O [Comp. 149] | 36.5
85 | CC(=O)Nc1ccc(N/C=N/O)cc1C(F)(F)F [Comp. 150] | 34.1
86 | O/N=C/Nc1ccc(OC(F)F)cc1 [Comp. 151] | 108.2
87 | O/N=C/Nc1ccccc1OC(F)F [Comp. 153] | 39.4
88 | COc1ccc(Oc2ccc(C(F)(F)F)cc2N/C=N/O)cc1 [Comp. 156] | 39.4
89 | CCCCCCCCCCc1ccc(N/C=N/O)cc1 [Comp. 157] | 121.4
90 | CSc1cccc(N/C=N/O)c1 [Comp. 162] | 62.6
91 | CCc1cccc(C(C)C)c1N/C=N/O [Comp. 163] | 40.0
92 | Cc1ccc(N/C=N/O)c(F)c1 [Comp. 165] | 105.7
93 | Cc1ccc(N/C=N/O)c(CO)c1 [Comp. 171] | 54.1
94 | CC(C)(C)c1cccc(N/C=N/O)c1 [Comp. 175] | 69.9
95 | CCCc1cccc(N/C=N/O)c1 [Comp. 179] | 63.5
96 | CCOC(=O)c1ccc(N/C=N/O)cc1 [Comp. 183] | 92.0
97 | CC(C)OC(=O)c1ccc(N/C=N/O)cc1 [Comp. 188] | 59.1
98 | CC(C)COC(=O)c1ccc(N/C=N/O)cc1 [Comp. 189] | 116.8
99 | COC(=O)c1ccc(OC)c(N/C=N/O)c1 [Comp. 190] | 44.9
100 | COc1cc(C#N)c(N/C=N/O)cc1OC [Comp. 196] | 46.9

Same assay, conditions: concentration at which production of 20-HETE was inhibited to 50%; rat kidney microsome

Row | IC50 [nM] | Structure (SMILES)
101 | 86.5 | O/N=C/Nc1ccc(Br)cc1Cl [Comp. 35]
